Test results from patent US10183273B2, “Absorbent article comprising cyclodextrin complexes” (The Procter & Gamble Company, priority 2016, dated 2019).

Experiment: Thiol Vapor Pressure Suppression (TVPS) index, zNose fast GC headspace
Set-up: key: % reduction in butanethiol headspace peak area vs control
Conditions: percentage reduction in butanethiol headspace peak area; 5 μl compound, 37° C. 4 hours
From the text: (§1) Thiol Vapor Pressure Suppression (TVPS) index is a measure of the reduction in butanethiol concentration in the headspace by a compound, as measured using a fast GC instrument, the zNose 7100 (Electronic Sensor Technologies, Newbury Park, Calif.).
as §1, with “Calif.) based on an Surface Acoustic Wave (SAW) Quartz microbalance detector, or equivalent.” for “Calif.).”
Before any measurements the instrument is calibrated according to manufacturer's instructions under the same experimental settings. The instrument has a DB-5 column (also available from Electronic Sensor Technologies, Newbury Park, Calif.) 1 m in length, 0.25 μm phase thickness, and 0.25 mm in diameter.
For analysis, the zNose is programmed with the Sensor Temperature, Inlet Temperature, Valve Temperature, and Initial Column Temperature all set to 40° C. The oven is temperature gradient is programmed at a rate of 10 C°/s from 40° C. to a final temperature of 200° C.
TVPS of a compound is measured in the following way: 100 μl±1 μl of a 1% v/v butanethiol (99%, purity, available from Sigma-Aldrich, St. Louis, Mo.) solution in ethanol (200 proof) is added into a 1 ml vial (8×40 mm). These vials are borosilcate glass straight walled vial. In another 1 ml vial (8×40 mm), 5 μl±0.2 μl of the compound is added. Both open vials are then placed inside a 20 mL headspace vial (22×75 mm), and the vial is immediately sealed using a screw thread closure with PTFE/Silicone septa. The vial is heated to 37° C. for 4 hours. After 4 hours, the vial is removed from the oven and let to equilibrate at 25° C.±2° C. for 15 minutes. The headspace inside the vial is sampled using the zNose is sampled for 10 s and analyzed following the experimental protocol outlined above. Samples with butanethiol alone, and the volatile active alone, are run using the same protocol to identify the peaks for both materials. An acceptable retention index for butanethiol is 720±30. If the peaks butanethiol peak and the volatile material peak co-elute, one skilled in the art can modify the protocol settings to separate those peaks to achieve a minimum resolution of 1.5. For example one can change the column temperature ramp rate. In between samples, the instrument needs to be cleaned to remove any trace materials. To clean the instrument, the instrument is run without samples as needed until no peaks greater than 100 counts are observed.
The amount of butanethiol in the headspace is measured from the area of the peak on the chromatograph for butanethiol (ABtSH,Rx). To calculate the percentage of butanethiol reduction in the headspace, a control with the butanethiol solution without the volatile material is run in the same manner and the area is measured as well (ABtSH,C). TVPS is then measured as the percentage reduction in butanethiol area calculated using the following formula: […]

SMILES	TVPS
Cc1ccc(C=O)s1 [5-methyl-2-thiophene-carboxaldehyde]	67.4
C=CC(C)CCC=C(C)CCC=O (stereo not drawn) [Floral Super]	52.4
CC(C)c1cccc(C(C)CC=O)c1 (stereo not drawn) [Florhydral]	53.3
CCCCCCC(C=O)=Cc1ccccc1 [Hexylcinnamic aldehyde]	8.0
CC(C)=CCCC(C)CCCC(C)C=O (stereo not drawn) [adoxal]	24.4
CC1=CC(C)C(C=O)CC1 (stereo not drawn) [ligustral]	42.5
CC(C)=CCCC(C)C=O (stereo not drawn) [melonal]	20.4
CC(C)=CCC/C(C)=C\C=O [neral]	17.1
CCC/C=C/C=O [trans-2-hexenal]	27.1
